Laboratory results from patent publication US5856325A, “Benzotriazines, pharmaceutical compositions, and methods of using same” (Boehringer Mannheim GmbH, priority 1992, dated 1999).

Legend:
[1] = test system: collagen-induced arachidonic acid (AA) liberation from human thrombocytes; assay: Inhibition of the collagen-induced arachidonic acid (AA) liberation from human thrombocytes (3H-AA); assay type: cell-based
Protocol: b) Inhibition of the collagen-induced arachidonic acid
(AA) liberation from human thrombocytes
As further indicator of a PLA2 inhibition, there is valid an inhibition of the AA liberation from thrombocytes. For this purpose, the thrombocytes are equilibrated with ^3 H-AA. This added radioactive arachidonic acid incorporates into membrane phospholipids. Subsequently, the thrombocytary PLA2 is activated via the collagen receptor and ^3 H-AA thus again liberated from the membrane phospholipids into the medium where it can be measured.

[2] = molecular target: T1, human recombinant type II PLA2 (synovial PLA2) (Homo sapiens, UniProt P14555); assay: Inhibition of the human recombinant type II PLA2 (synovial PLA2), in vitro; assay type: biochemical
T1 sequence (P14555 21-144): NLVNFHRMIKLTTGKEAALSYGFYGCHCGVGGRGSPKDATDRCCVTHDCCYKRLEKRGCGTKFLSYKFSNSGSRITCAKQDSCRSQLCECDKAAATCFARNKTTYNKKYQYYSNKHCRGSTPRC
From the text: a) Inhibition of the human recombinant type II PLA2) (=synovial PLA2)
As typical respresentative of A PLA2, there was selected for the testing the synovial PLA2 (dissertation of Rainer Muller, 1993; University of Regensburg).
As representative of the compounds I or Ia, respectively, there was investigated in more detail the compound from Example 1. In the following Table, there is given dosage-dependent the percentage in vitro inhibition of PLA2.

inhibition at 1 µg/mL ([2]; 1 μg/ml): 43%
inhibition at 10 µg/mL ([2]; 10 μg/ml): 60%
inhibition at 100 µg/mL ([2]; 100 μg/ml): 99%
Structure (SMILES): Nc1nc2ccccc2[n+]([O-])n1 [Example 1, 1,2,4-Benzotriazine-3-amine 1-oxide]
inhibition at 10 µg/mL ([1]; 10 μg/ml, collagen-induced, human thrombocytes): 29%
inhibition at 100 µg/mL ([1]; 100 μg/ml, collagen-induced, human thrombocytes): 91%
inhibition of the collagen-induced AA liberation, maximum ([1]; dosage-dependent): up to 91%
